pIC50: −log10 of the molar value.

For one test, the target named is human PD-L1 / Human PD-1 (Homo sapiens (Human), UniProt Q9NZQ7). Nature of the test: Enzyme-Linked Immunosorbent Assay (ELISA), PD-1/PD-L1 binding.
Chain of human PD-L1 / Human PD-1 (Q9NZQ7 19-239): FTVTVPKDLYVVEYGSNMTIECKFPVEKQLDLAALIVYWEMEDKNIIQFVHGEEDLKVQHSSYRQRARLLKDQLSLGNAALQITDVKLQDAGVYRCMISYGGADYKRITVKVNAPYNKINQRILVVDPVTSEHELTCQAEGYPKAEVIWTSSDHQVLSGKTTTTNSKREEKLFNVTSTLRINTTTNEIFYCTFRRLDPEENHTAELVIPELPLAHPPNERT
Conditions: not given
As for the experimental part:
Plates were coated with 1 μg/mL of human PD-L1 (obtained from R&D) in PBS overnight at 4° C. The wells were then blocked with PBS containing 2% BSA in PBS (W/V) with 0.05% TWEEN-20 for 1 hour at 37° C. The plates were washed 3 times with PBS/0.05% TWEEN-20 and the samples were diluted to 1:5 in dilution medium in the ELISA plates. Human PD-1 and biotin 0.3 μg/mL (ACRO Biosystems) were added and incubated for 1 hour at 37° C. then washed 3 times with PBS/0.05% TWEEN-20. A second block was added with PBS containing 2% BSA in PBS (W/V)/0.05% TWEEN-20 for 10 min at 37° C. and was washed 3 times with PBS/0.05% TWEEN-20. Streptavidin-HRP was added for 1 hour at 37° C. then washed 3 times with PBS/0.05% TWEEN-20. TMB substrate was added and reacted for 20 min at 37° C. A stop solution (2 N aqueous H2SO4) was added. The absorbance was read at 450 nm using a micro-plate spectrophotometer.
Compounds in Table 2 and Table 3 were prepared by methods as described in the Examples, and evaluated according to the assay below.
(In an ELISA, binding on a coated surface is turned into a signal by an enzyme label.)
As usually defined, the pIC50 is −log10 of the IC50, conventionally taken in molar units. For the compound `N#Cc1cncc(COc2cc(O[C@H]3CCc4c(-c5ccccc5F)cccc43)c(Cl)cc2CN2CCC(F)CC2)c1` [Example 2.094], the pIC50 was 6.30 to 7.00.

Staying with this test, now noted: Table 2; plate-coated human PD-L1, biotinylated human PD-1; read-out: ELISA IC50.
With `COc1cccc(-c2cccc3c2CC[C@@H]3Oc2cc(OCc3cncc(C#N)c3)c(CN3CCOCC3)cc2Cl)c1Cl` [Example 2.082], the pIC50 is 4.70 to 6.30. Still for that read-out and setting: next, `COc1cccc(-c2cccc3c2CC[C@@H]3Oc2cc(OCc3cncc(C#N)c3)c(CN3CCC(C(N)=O)CC3)cc2Cl)c1Cl` [Example 2.083]: 6.30 to 7.00; `O=C(O)[C@H](CO)NCc1cc(Cl)c(O[C@H]2CCc3c(-c4ccccc4F)cccc32)cc1OCc1cnc(Cl)nc1` [Example 2.084]: > 7.00. The same measure, in the same setting: next, `COc1cccc(-c2cccc3c2CCC3CCOc2cc(OCc3cncc(C#N)c3)c(CN[C@@H](CO)C(=O)O)cc2Cl)c1F` (some centres unmarked) [Example 2.085]: 4.70 to 6.30; `COc1cccc(-c2cccc3c2CCC3CCOc2cc(OCc3cncc(C#N)c3)c(CN3CCC(O)CC3)cc2Cl)c1F` (centres unmarked) [Example 2.086]: 4.70 to 6.30. Still for that read-out and setting: the figure for `COc1cccc(-c2cccc3c2CCC3CCOc2cc(OCc3cncc(C#N)c3)c(CN3CCC(O)CC3)cc2Cl)c1F` (centres unmarked) [Example 2.087] is 4.70 to 6.30; for `COc1cccc(-c2cccc3c2CCC3CCOc2cc(OCc3cncc(C#N)c3)c(CN3CC(O)C3)cc2Cl)c1F` (centres unmarked) [Example 2.088] it is 4.70 to 6.30; for `COC(=O)c1cccc(COc2cc(O[C@H]3CCc4c(-c5ccccc5F)cccc43)c(Cl)cc2CN2CCC(O)CC2)c1` [Example 2.089] it is 4.70 to 6.30. `N#CCCCCOc1cc(O[C@H]2CCc3c(-c4ccccc4F)cccc32)c(Cl)cc1CN1CCC(O)CC1` [Example 2.090]: the pIC50 is 6.30 to 7.00. `CC(C)C[C@H](NCc1cc(Cl)c(O[C@H]2CCc3c(-c4ccccc4F)cccc32)cc1OCc1cncc(C#N)c1)C(=O)O` [Example 2.091]: the pIC50 is 6.30 to 7.00. Same read-out and setting: next, `CC(C)C[C@H](NCc1cc(Cl)c(O[C@H]2CCc3c(-c4ccccc4F)cccc32)cc1OCc1cncc(C#N)c1)C(=O)O` [Example 2.092]: 6.30 to 7.00. Consider `N#Cc1cncc(COc2cc(O[C@H]3CCc4c(-c5ccccc5F)cccc43)c(Cl)cc2CN2CCC(F)CC2)c1` [Example 2.093], for which the negative logarithm of the IC50 (pIC50) was 4.70 to 6.30. On the same count and under the same terms, the figure for `OC1CCN(Cc2cc(Cl)c(O[C@H]3CCc4c(-c5ccccc5F)cccc43)cc2OCc2ccc(C(F)(F)F)nc2)CC1` [Example 2.095] is 4.70 to 6.30. For the compound `OC1CCN(Cc2cc(Cl)c(O[C@H]3CCc4c(-c5ccccc5F)cccc43)cc2OCc2ccc(C(F)(F)F)nc2)CC1` [Example 2.096], the pIC50 was 4.70 to 6.30. In the case of `N#Cc1cncc(COc2cc(O[C@H]3CCc4c(-c5ccccc5F)cccc43)c(Cl)cc2CN2CCC(O)C(F)(F)C2)c1` (some centres unmarked) [Example 2.097], the pIC50 is 4.70 to 6.30. `C[C@H](NCc1cc(Cl)c(O[C@H]2CCc3c(-c4ccccc4F)cccc32)cc1OCc1cncc(C#N)c1)C(=O)O` [Example 2.098]: the pIC50 was > 7.00. On the same count and under the same terms, the figure for `C[C@@H](O)[C@H](NCc1cc(Cl)c(O[C@H]2CCc3c(-c4ccccc4F)cccc32)cc1OCc1cncc(C#N)c1)C(=O)O` [Example 2.100] is > 7.00; for `N#Cc1cncc(COc2cc(O[C@H]3CCc4c(-c5ccccc5F)cccc43)c(Cl)cc2CN[C@H](CO)C(=O)O)c1` [Example 2.102] it is > 7.00; for `COc1cccc(F)c1-c1cccc2c1CC[C@@H]2Oc1cc(OCc2cncc(C#N)c2)c(CN[C@@H](CO)C(=O)O)cc1Cl` [Example 2.105] it is 6.30 to 7.00. For the compound `COc1cccc(-c2cccc3c2CC[C@@H]3Oc2cc(OCc3cncc(C#N)c3)c(CN[C@H](C(=O)O)[C@@H](C)O)cc2Cl)c1F` [Example 2.106], the negative-log IC50 (pIC50) was > 7.00.

As to `COc1cccc(-c2cccc3c2CC[C@@H]3Oc2cc(OCc3cncc(C#N)c3)c(CN[C@H](CO)C(=O)O)cc2Cl)c1F` [Example 2.107], the pIC50 was > 7.00.

As to `COc1cccc(F)c1-c1cccc2c1CC[C@@H]2Oc1cc(OCc2cncc(C#N)c2)c(CN2CCC(O)CC2)cc1Cl` [Example 2.108], the pIC50 is 4.70 to 6.30. Still for that read-out and setting: the figure for `OC1CCN(Cc2cc(Cl)c(O[C@H]3CCc4c(-c5ccccc5F)cccc43)cc2OCc2cnc(N3CCC(O)CC3)nc2)CC1` [Example 2.109] is 4.70 to 6.30. Take `N#Cc1cccc(COc2cc(O[C@H]3CCc4c(-c5ccccc5F)cccc43)c(Cl)cc2CN2CCC(O)CC2)c1` [Example 2.110]: the pIC50 is 4.70 to 6.30. On the same count and under the same terms, the figure for `OC1CCN(Cc2cc(Cl)c(O[C@H]3CCc4c(-c5ccccc5F)cccc43)cc2OCc2cnc(Cl)nc2)CC1` [Example 2.111] is 6.30 to 7.00.

Consider `N#Cc1cncc(-c2cc(O[C@H]3CCc4c(-c5ccccc5F)cccc43)c(Cl)cc2CN2CCC(O)CC2)c1` [Example 2.112], for which the negative-log IC50 (pIC50) was 4.70 to 6.30.

Consider `N#Cc1cncc(COc2cc(O[C@H]3CCc4c(-c5ccccc5F)cccc43)c(Cl)cc2CN2CC[C@H](O)[C@H](F)C2)c1` [Example 2.113], for which the pIC50 was 4.70 to 6.30.

On to `N#Cc1cncc(COc2cc(O[C@H]3CCc4c(-c5ccccc5F)cccc43)c(Cl)cc2CN2CC[C@H](O)[C@@H](F)C2)c1` [Example 2.114], for which the pIC50 is 4.70 to 6.30. On the same count and under the same terms, next, `N#Cc1cncc(-c2cc(O[C@H]3CCc4c(-c5ccccc5F)cccc43)c(Cl)cc2CN[C@@H](CO)C(=O)O)c1` [Example 2.115]: > 7.00; `OC1CCN(Cc2cc(Cl)c(O[C@H]3CCc4c(-c5ccccc5F)cccc43)cc2OCc2cccnc2)CC1` [Example 2.116]: 4.70 to 6.30; `N#Cc1cncc(COc2cc(O[C@H]3CCc4c(-c5ccccc5F)cccc43)c(Cl)cc2CN[C@@H](CCC(=O)O)C(=O)O)c1` [Example 2.117]: > 7.00. Still for that read-out and setting: the figure for `N#Cc1cncc(COc2cc(O[C@H]3CCc4c(-c5ccccc5F)cccc43)c(Cl)cc2CN[C@@H](CC(N)=O)C(=O)O)c1` [Example 2.118] is > 7.00; for `N#Cc1cncc(COc2cc(O[C@H]3CCc4c(-c5ccccc5F)cccc43)c(Cl)cc2CN2CC3(CC(O)C3)C2)c1` [Example 2.119] it is 6.30 to 7.00. With `N#Cc1cncc(COc2cc(O[C@H]3CCc4c(-c5ccccc5F)cccc43)c(Cl)cc2CN2CC(F)C2)c1` [Example 2.120], the pIC50 is 4.70 to 6.30. With `N#Cc1cccc(-c2cc(O[C@H]3CCc4c(-c5ccccc5F)cccc43)c(Cl)cc2CN[C@@H](CO)C(=O)O)c1` [Example 2.121], the pIC50 was 6.30 to 7.00. For the compound `C[C@H](O)[C@@H](NCc1cc(Cl)c(O[C@H]2CCc3c(-c4ccccc4F)cccc32)cc1OCc1cncc(C#N)c1)C(=O)O` [Example 2.122], the pIC50 was > 7.00. Still for that read-out and setting: next, `CC(C)[C@H](NCc1cc(Cl)c(O[C@H]2CCc3c(-c4ccccc4F)cccc32)cc1OCc1cncc(C#N)c1)C(=O)O` [Example 2.123]: 6.30 to 7.00; `NC(=O)COc1cc(O[C@H]2CCc3c(-c4ccccc4F)cccc32)c(Cl)cc1CN[C@@H](CO)C(=O)O` [Example 2.124]: 4.70 to 6.30; `CCC(O)C(NCc1cc(Cl)c(O[C@H]2CCc3c(-c4ccccc4F)cccc32)cc1OCc1cncc(C#N)c1)C(=O)O` (some centres unmarked) [Example 2.125]: > 7.00. Take `C[C@@H](O)[C@H](NCc1cc(Cl)c(O[C@H]2CCc3c(-c4ccccc4F)cccc32)cc1-c1cncc(C#N)c1)C(=O)O` [Example 2.126]: the pIC50 is 6.30 to 7.00.

As to `C[C@H](O)[C@H](NCc1cc(Cl)c(O[C@H]2CCc3c(-c4ccccc4F)cccc32)cc1OCc1cncc(C#N)c1)C(=O)O` [Example 2.127], the pIC50 was > 7.00. On to `C[C@@H](O)[C@@H](NCc1cc(Cl)c(O[C@H]2CCc3c(-c4ccccc4F)cccc32)cc1OCc1cncc(C#N)c1)C(=O)O` [Example 2.129], for which the pIC50 was > 7.00. On to `Nc1ncc(COc2cc(O[C@H]3CCc4c(-c5ccccc5F)cccc43)c(Cl)cc2CN2CCC(O)CC2)cn1` [Example 2.130], for which the pIC50 is 6.30 to 7.00. On the same count and under the same terms, next, `COc1ncc(COc2cc(O[C@H]3CCc4c(-c5ccccc5F)cccc43)c(Cl)cc2CN2CCC(O)CC2)cn1` [Example 2.131]: 6.30 to 7.00; `N#Cc1cncc(COc2cc(O[C@H]3CCc4c(-c5ccccc5F)cccc43)c(Cl)cc2CN[C@H](C(=O)O)[C@H](O)c2ccccc2)c1` [Example 2.132]: 6.30 to 7.00. On to `C[C@@H](O)[C@H](NCc1cc(Cl)c(O[C@H]2CCc3c(-c4ccccc4F)cccc32)cc1OCc1cccnn1)C(=O)O` [Example 2.133], for which the pIC50 is 6.30 to 7.00. Consider `COC[C@H](NCc1cc(Cl)c(O[C@H]2CCc3c(-c4ccccc4F)cccc32)cc1OCc1cncc(C#N)c1)C(=O)O` [Example 2.134], for which the negative logarithm of the IC50 (pIC50) is > 7.00. Same read-out and setting: next, `C[C@@H](O)[C@H](NC(=O)CNCc1cc(Cl)c(O[C@H]2CCc3c(-c4ccccc4F)cccc32)cc1OCc1cncc(C#N)c1)C(=O)O` [Example 2.135]: 6.30 to 7.00. `N#Cc1cncc(COc2cc(O[C@@H]3CCc4c(-c5ccccc5F)cccc43)c(Cl)cc2CN2CCC(O)CC2)c1` [Example 2.136]: the pIC50 is 6.30 to 7.00. Turning to `C=CC(=O)NCCNCc1cc(Cl)c(O[C@H]2CCc3c(-c4ccccc4F)cccc32)cc1OCc1cncc(C#N)c1` [Example 2.137], the pIC50 is 6.30 to 7.00. Still for that read-out and setting: next, `C[C@@H](O)[C@H](NCc1cc(Cl)c(O[C@@H]2CCc3c(-c4ccccc4F)cccc32)cc1OCc1cncc(C#N)c1)C(=O)O` [Example 2.138]: > 7.00. With `N#Cc1cncc(COc2cc(O[C@@H]3CCc4c(-c5ccccc5F)cccc43)c(Cl)cc2CN[C@@H](CO)C(=O)O)c1` [Example 2.139], the negative logarithm of the IC50 (pIC50) was > 7.00.

The record behind these values is patent publication US10639284B2, “Immunomodulator compounds” (CHEMOCENTRYX, INC., priority 2016, dated 2020).
